From US6518243B1, “Desleucyl glycopeptide antibiotics and methods of making same” (Trustees of Princeton University, priority 1999, dated 2003)

What was measured:
E. faecalis (CL 4877) = test: Zone of inhibition screen, 96 well agar array format; format: cell-based; parameters: scale not given here; conditions: zone of inhibition relative to 1 mg/ml stock solution of p-chlorobiphenylvancomycin
How it was run: (§1)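 Panel screening of every compound against several bacterial strains, among them E. faecium ATCC 49624, was done in a 96-well agar array.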

[1] = tested on: E. faecalis (ATCC 292121); test: as above; format: cell-based; conditions: zone of inhibition relative to 1 mg/ml stock solution of p-chlorobiphenylvancomycin
Experimental: The antibacterial activity of each of the compounds against the bacterial strains E. faceium (ATCC 49624), S. epidermidis (ATCC 12228), S. aureus (ATCC 29213), E. faecalis (CL 4877) and E. faecalis (ATCC 292121) was tested. Each of the compounds was screened in a 96 will agar array format.

E. faceium (ATCC 49624) = test: as above; format: cell-based, E. faecium; conditions: zone of inhibition relative to 1 mg/ml stock solution of p-chlorobiphenylvancomycin;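 note: score 3 means fourfold and score 4 sixteenfold the reference zone size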
How it was run: as §1

[2] = tested on: S. epidermidis (ATCC 12228); test: as above; format: cell-based; parameters: scale not given here; conditions: zone of inhibition relative to 1 mg/ml stock solution of p-chlorobiphenylvancomycin
How it was run: as §1

E. Faecalis CL 4877 = test: MIC determination in BHI media, OD600; format: cell-based; conditions: BHI + 0.1% casamino acids, 18 hours at 37° C., ≧90% OD600 inhibition
How it was run: (§2)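 Starting cell density was near 5×10^5 CFU/ml, taken from exponentially growing cultures. Incubation with the DMSO dilution series ran 18 hours at 37° C.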

E. faecium ATCC 49624 = test: MIC determination in BHI media, OD600; format: cell-based; conditions: BHI + 0.1% casamino acids, 18 hours at 37° C., ≧90% OD600 inhibition
How it was run: as §2

E. faecium CL 4931 = test: MIC determination in BHI media, OD600; format: cell-based; conditions: BHI + 0.1% casamino acids, 18 hours at 37° C., ≧90% OD600 inhibition
How it was run: as §2

S. aureus (ATCC 29213) = test: Zone of inhibition screen, 96 well agar array format; format: cell-based; parameters: scale not given here; conditions: zone of inhibition relative to 1 mg/ml stock solution of p-chlorobiphenylvancomycin
How it was run: as §1

E. faecalis ATCC 29212 = test: MIC determination in BHI media, OD600; format: cell-based; conditions: BHI + 0.1% casamino acids, 18 hours at 37° C., ≧90% OD600 inhibition
How it was run: as §2

S aureus ATCC 29213 = test: MIC determination in BHI media, OD600; format: cell-based; conditions: BHI + 0.1% casamino acids, 18 hours at 37° C., ≧90% OD600 inhibition
How it was run: as §2

S. Aureus ATCC 33591 = test: MIC determination in BHI media, OD600; format: cell-based; conditions: BHI + 0.1% casamino acids, 18 hours at 37° C., ≧90% OD600 inhibition
How it was run: as §2
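Throughout, for zone score, E. faecalis ATCC 29212: score 3 means fourfold and score 4 sixteenfold the reference zone size.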

Row | MIC E. faecalis CL 4877 (E. Faecalis CL 4877) [µg/mL] | MIC E. faecium ATCC 49624 (E. faecium ATCC 49624) [µg/mL] | MIC E. faecium CL 4931 (E. faecium CL 4931) [µg/mL] | MIC E. faecalis ATCC 29212 (E. faecalis ATCC 29212) [µg/mL] | MIC S. aureus ATCC 29213 (S aureus ATCC 29213) [µg/mL] | MIC S. aureus ATCC 33591 (S. Aureus ATCC 33591) [µg/mL] | Structure (SMILES) | zone score, E. faecalis CL 4877 (E. faecalis (CL 4877)) | zone score, E. faecalis ATCC 29212 [1] | zone score, E. faecium ATCC 49624 (E. faceium (ATCC 49624)) | zone score, S. epidermidis ATCC 12228 [2] | zone score, S. aureus ATCC 29213 (S. aureus (ATCC 29213))
1 | 25 | 0.39 | 25 |  |  |  | CC1OC(OC2C(Oc3c4cc5cc3Oc3ccc(cc3Cl)C(O)C3NC(=O)C(NC(=O)C5NC(=O)C(CC(N)=O)NC(=O)C(NC(=O)C(N)CCCCNC(=O)CCCCC5SCC6NC(=O)NC65)C(O)c5ccc(c(Cl)c5)O4)c4ccc(O)c(c4)-c4c(O)cc(O)cc4C(C(=O)O)NC3=O)OC(CO)C(O)C2O)CC(C)(NCc2ccc(-c3ccc(Cl)cc3)cc2)C1O (stereo not shown) [Compound 75] | 2 | 2 | 2 | 2 | 
2 |  | 0.39 | 25 |  | 0.78 | 0.78 | CC(O)C(N)C(=O)NC1C(=O)NC(CC(N)=O)C(=O)NC2C(=O)NC3C(=O)NC(C(=O)NC(C(=O)O)c4cc(O)cc(O)c4-c4cc3ccc4O)C(O)c3ccc(c(Cl)c3)Oc3cc2cc(c3OC2OC(CO)C(O)C(O)C2OC2CC(C)(NCc3ccc(-c4ccc(Cl)cc4)cc3)C(O)C(C)O2)Oc2ccc(cc2Cl)C1O (stereo not shown) [Compound 64] | 2 | 2 |  |  | 

More lines, now with the values behind:

Row | Structure (SMILES) | MIC E. faecalis CL 4877 (E. Faecalis CL 4877) [µg/mL] | MIC E. faecium ATCC 49624 (E. faecium ATCC 49624) [µg/mL] | MIC E. faecium CL 4931 (E. faecium CL 4931) [µg/mL] | MIC E. faecalis ATCC 29212 (E. faecalis ATCC 29212) [µg/mL] | MIC S. aureus ATCC 29213 (S aureus ATCC 29213) [µg/mL] | MIC S. aureus ATCC 33591 (S. Aureus ATCC 33591) [µg/mL] | zone score, E. faecalis CL 4877 (E. faecalis (CL 4877)) | zone score, E. faecalis ATCC 29212 [1] | zone score, E. faecium ATCC 49624 (E. faceium (ATCC 49624)) | zone score, S. epidermidis ATCC 12228 [2] | zone score, S. aureus ATCC 29213 (S. aureus (ATCC 29213))
3 | CNCC(=O)N[C@H]1C(=O)N[C@@H](CC(N)=O)C(=O)N[C@H]2C(=O)N[C@H]3C(=O)N[C@H](C(=O)N[C@@H](C(=O)O)c4cc(O)cc(O)c4-c4cc3ccc4O)[C@H](O)c3ccc(c(Cl)c3)Oc3cc2cc(c3O[C@@H]2O[C@H](CO)[C@@H](O)[C@H](O)[C@H]2O[C@@H]2C[C@@](C)(NCc3ccc(-c4ccc(Cl)cc4)cc3)[C@@H](O)[C@@H](C)O2)Oc2ccc(cc2Cl)[C@H]1O [Compound 8] |  |  |  |  |  |  | 2 | 2 |  |  | 
4 | CC1OC(OC2C(Oc3c4cc5cc3Oc3ccc(cc3Cl)C(O)C3NC(=O)C(NC(=O)C5NC(=O)C(CC(N)=O)NC(=O)C(NC(=O)C(N)CCC(N)=O)C(O)c5ccc(c(Cl)c5)O4)c4ccc(O)c(c4)-c4c(O)cc(O)cc4C(C(=O)O)NC3=O)OC(CO)C(O)C2O)CC(C)(NCc2ccc(-c3ccc(Cl)cc3)cc2)C1O (stereo not shown) [Compound 57] |  |  |  |  |  |  |  | 2 | 2 |  | 
5 | C[C@H]1O[C@H](O[C@H]2[C@H](Oc3c4cc5cc3Oc3ccc(cc3Cl)[C@@H](O)[C@@H](NC(=O)[C@H](N)Cc3c[nH]c6ccccc36)C(=O)N[C@@H](CC(N)=O)C(=O)N[C@H]5C(=O)N[C@H]3C(=O)N[C@H](C(=O)N[C@@H](C(=O)O)c5cc(O)cc(O)c5-c5cc3ccc5O)[C@H](O)c3ccc(c(Cl)c3)O4)O[C@H](CO)[C@@H](O)[C@@H]2O)C[C@@](C)(NCc2ccc(-c3ccc(Cl)cc3)cc2)[C@H]1O [Compound 25] |  | 0.25 |  | 0.39 | 0.25 | 0.25 | 2 | 2 | 2 |  | 2
6 | C[C@H]1O[C@H](O[C@H]2[C@H](Oc3c4cc5cc3Oc3ccc(cc3Cl)[C@@H](O)[C@@H](NC(=O)CN)C(=O)N[C@@H](CC(N)=O)C(=O)N[C@H]5C(=O)N[C@H]3C(=O)N[C@H](C(=O)N[C@@H](C(=O)O)c5cc(O)cc(O)c5-c5cc3ccc5O)[C@H](O)c3ccc(c(Cl)c3)O4)O[C@H](CO)[C@@H](O)[C@@H]2O)C[C@@](C)(NCc2ccc(-c3ccc(Cl)cc3)cc2)[C@H]1O [Compound 28] |  |  |  |  |  |  | 2 | 2 | 2 |  | 
